pIC50, pKd: −log10 of the molar value. Numbered stars: 1 amine (or outer) side, 2 acyl side, 3 side chain; on linkers, the order of the positions; unused ones are H or OH. Bridge positions count the residues as written; N and C are the ends. Square brackets hold non-standard residues; d marks the D form. Peptide text beside a SMILES is read from it. X1 = COc1cccc2c([C@H](C)[C@](C)(N[*:1])C(=O)[*:2])c[nH]c12; Morpholine(3S-CO,6,6-Me2) = CC1(C)CN[C@H](C(=O)O)CO1; Trp(7-Cl) = N[C@@H](Cc1c[nH]c2c(Cl)cccc12)C(=O)O; Phe(4-COOH) = N[C@@H](Cc1ccc(C(=O)O)cc1)C(=O)O; X2 = O=C([C@H]1CC[C@@H](N[*:1])C1)[*:2]; Pip(4-aza) = O=C(O)[C@@H]1CNCCN1; 4Pal = N[C@@H](Cc1ccncc1)C(=O)O; NMeE = CN[C@@H](CCC(=O)O)C(=O)O; X3 = CC[C@H](C(=O)[*:1])[*:2]; NEtAla = CCN[C@@H](C)C(=O)O; αMeS = C[C@](N)(CO)C(=O)O; Nle = CCCC[C@H](N)C(=O)O; Sar = CNCC(=O)O
Legend:
[1] = biological target: T1, Tumor necrosis factor receptor superfamily member 1A (Homo sapiens, UniProt P19438); assay: Binding affinity to C-terminal Avi-tagged human TNFRl extracted from Sf21 baculovirus expression system assessed as dissociation constant incubated for 20 hrs in presence of ATP by SPR analysis
T1 sequence (P19438 whole entry): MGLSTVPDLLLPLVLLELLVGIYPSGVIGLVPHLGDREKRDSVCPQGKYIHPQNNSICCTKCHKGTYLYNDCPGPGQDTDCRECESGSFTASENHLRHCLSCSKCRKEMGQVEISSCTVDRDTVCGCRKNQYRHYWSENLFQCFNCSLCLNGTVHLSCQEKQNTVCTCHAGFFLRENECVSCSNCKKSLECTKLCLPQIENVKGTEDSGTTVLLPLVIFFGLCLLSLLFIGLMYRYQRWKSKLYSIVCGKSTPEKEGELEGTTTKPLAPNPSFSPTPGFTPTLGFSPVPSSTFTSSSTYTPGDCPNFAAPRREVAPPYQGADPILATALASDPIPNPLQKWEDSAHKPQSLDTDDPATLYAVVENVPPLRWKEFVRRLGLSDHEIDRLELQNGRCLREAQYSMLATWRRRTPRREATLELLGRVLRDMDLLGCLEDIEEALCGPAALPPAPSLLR

[2] = biological target: T1, Tumor necrosis factor receptor superfamily member 1A; assay: Displacement of biotinylated peptide from C-terminal 6His-tagged human soluble TNFR1 (1 to 211 residues) extracted from Sf21 baculovirus expression system incubated for 90 mins by LanthaScreen Eu based TR-FRET binding assay
[3] = biological target: T2, Tumor necrosis factor receptor superfamily member 1B (Homo sapiens, UniProt P20333); assay: Binding affinity to C-terminal Avi-tagged human TNFR2 extracted from Sf21 baculovirus expression system assessed as dissociation constant incubated for 20 hrs in presence of ATP by SPR analysis
T2 sequence (P20333 whole entry): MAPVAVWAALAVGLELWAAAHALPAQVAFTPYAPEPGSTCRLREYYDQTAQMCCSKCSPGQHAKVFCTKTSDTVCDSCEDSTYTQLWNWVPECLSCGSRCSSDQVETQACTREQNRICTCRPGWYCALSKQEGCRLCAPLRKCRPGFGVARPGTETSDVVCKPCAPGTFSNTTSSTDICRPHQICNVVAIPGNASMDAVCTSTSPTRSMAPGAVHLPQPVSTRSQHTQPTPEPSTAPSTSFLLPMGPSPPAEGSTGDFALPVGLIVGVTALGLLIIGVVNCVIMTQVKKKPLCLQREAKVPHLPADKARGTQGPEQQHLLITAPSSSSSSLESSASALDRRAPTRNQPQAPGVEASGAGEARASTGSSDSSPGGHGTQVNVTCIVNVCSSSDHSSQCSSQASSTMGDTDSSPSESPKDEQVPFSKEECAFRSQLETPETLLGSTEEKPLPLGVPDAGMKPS

[4] = Inhibition of TNFalpha-induced NF-kappaB signal transduction pathway in human THP-1 cells preincubated for 1 hrs followed by TNFalpha addition and measured after 16 to 18 hrs by luminescence based microplate reader; format: cell-based

pIC50 [4] | SMILES | pKd [1] | pIC50 [2] | pKd [3]
8.66 | CCCC[C@@H]1NC(=O)[C@@H](CC)SC[C@@H](C(N)=O)NC(=O)[C@](C)([C@@H](C)c2c[nH]c3c(OC)cccc23)NC(=O)CN(C)C(=O)[C@H](Cc2ccc(O)cc2)NC(=O)[C@H](Cc2ccc(C(=O)O)cc2)NC(=O)[C@](C)(CO)NC(=O)[C@H](Cc2c[nH]c3c(Cl)cccc23)NC(=O)[C@H](Cc2ccncc2)NC(=O)[C@H](CC(N)=O)NC(=O)[C@H](CCC(=O)O)N(C)C(=O)[C@H](Cc2c[nH]c3ccccc23)NC(=O)[C@@H]2COC(C)(C)CN2C(=O)[C@H](Cc2ccncc2)NC1=O ([Nle][4Pal][Morpholine(3S-CO,6,6-Me2)]W[NMeE]N[4Pal][Trp(7-Cl)][αMeS][Phe(4-COOH)]Y[Sar][X1]C-NH2; linker N-14 via X3) | 9.70 | 9.26 | < 6.00
8.92 | CCCC[C@@H]1NC(=O)[C@H]2CC[C@H](C2)NC(=O)[C@](C)([C@@H](C)c2c[nH]c3c(OC)cccc23)NC(=O)CN(C)C(=O)[C@H](Cc2ccc(O)cc2)NC(=O)[C@H](Cc2ccc(C(=O)O)cc2)NC(=O)[C@](C)(CO)NC(=O)[C@H](Cc2c[nH]c3c(Cl)cccc23)NC(=O)[C@H](Cc2ccncc2)NC(=O)[C@H](CC(=O)O)NC(=O)[C@H](CCC(=O)O)N(C)C(=O)[C@H](Cc2c[nH]c3ccccc23)NC(=O)[C@@H]2CNCCN2C(=O)[C@H](Cc2ccncc2)NC1=O (cyclo([4Pal][Trp(7-Cl)][αMeS][Phe(4-COOH)]Y[Sar][X1][X2][Nle][4Pal][Pip(4-aza)]W[NMeE]D)) | 10.00 | 9.70 | < 6.00
9.10 | CCCC[C@@H]1NC(=O)CSC[C@@H](C(N)=O)NC(=O)[C@](C)([C@@H](C)c2c[nH]c3c(OC)cccc23)NC(=O)CN(C)C(=O)[C@H](Cc2ccc(O)cc2)NC(=O)[C@H](Cc2ccc(C(=O)O)cc2)NC(=O)[C@](C)(CO)NC(=O)[C@H](Cc2c[nH]c3c(Cl)cccc23)NC(=O)[C@H](Cc2ccncc2)NC(=O)[C@H](CC(N)=O)NC(=O)[C@H](C)N(CC)C(=O)[C@H](Cc2c[nH]c3ccccc23)NC(=O)[C@@H]2COC(C)(C)CN2C(=O)[C@H](Cc2ccncc2)NC1=O ({CH2CO}-[Nle][4Pal][Morpholine(3S-CO,6,6-Me2)]W[NEtAla]N[4Pal][Trp(7-Cl)][αMeS][Phe(4-COOH)]Y[Sar][X1]C-NH2; thioether N-14) | 9.85 | 9.22 | < 6.00
